According to US10023562B2, “Heteroaryl substituted pyridyl compounds useful as kinase modulators” (BRISTOL-MYERS SQUIBB COMPANY, priority 2012, dated 2018):

How the values were obtained:
IRAK4 = IRAK4 (Homo sapiens (Human), UniProt Q9NWZ3); experiment: IRAK4 Inhibition Assay; assay type: biochemical; conditions: ATP 500 μM; IRAK4 0.6 nM; 60 min at room temperature
Protocol: IRAK4 Inhibition Assay The assays were performed in U-bottom 384-well plates. […] The reaction was initiated by the combination of IRAK4 with substrates and test compounds. The reaction mixture was incubated at room temperature for 60 min. and terminated by adding 45 μL of 35 mM EDTA to each sample. The reaction mixture was analyzed on the Caliper LABCHIP® 3000 (Caliper, Hopkinton, Mass.) by electrophoretic separation of the fluorescent substrate and phosphorylated product.

[1] = tested on: TLR2 induced IL-6 in peripheral blood mononuclear cells (PBMCs); experiment: PBMC TLR2 Induced IL-6 Assay; assay type: cell-based; conditions: Homo sapiens, PBMC, 5 h, 10 μg/ml lipoteichoic acid for 5 hours, IL-6 by ELISA, values marked * are EC50, read-out: Cell EC50 (values marked *)
Protocol: PBMC TLR2 Induced IL-6 Assay Peripheral blood mononuclear cells (PBMCs) were isolated from human blood containing the anti-coagulant EDTA (2.5 mM) by centrifugation over a FICOLL® gradient. […] At the end of the culture, plates were centrifuged at 1800 rpm for 10 minutes to pellet the cells. Supernatants were harvested and analyzed for IL-6 levels by ELISA (BD Biosciences, San Jose, Calif.).

IRAK4, sequence (Q9NWZ3 whole entry, species assumed): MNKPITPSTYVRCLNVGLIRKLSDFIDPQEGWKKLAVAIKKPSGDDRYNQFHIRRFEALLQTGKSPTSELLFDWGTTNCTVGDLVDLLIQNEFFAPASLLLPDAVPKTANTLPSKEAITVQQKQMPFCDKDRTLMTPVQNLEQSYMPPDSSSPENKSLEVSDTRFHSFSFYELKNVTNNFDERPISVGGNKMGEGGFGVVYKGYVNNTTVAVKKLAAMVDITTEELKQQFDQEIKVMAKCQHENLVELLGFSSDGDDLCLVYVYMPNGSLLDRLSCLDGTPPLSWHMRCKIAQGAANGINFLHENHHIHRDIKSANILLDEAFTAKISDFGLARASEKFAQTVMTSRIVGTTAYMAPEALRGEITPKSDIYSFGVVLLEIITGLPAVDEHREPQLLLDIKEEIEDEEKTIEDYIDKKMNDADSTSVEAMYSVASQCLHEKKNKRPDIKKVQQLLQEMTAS

**Q.** With `CC(C)Nc1cc(Nc2ncc(Cl)cc2Cl)ncc1C(=O)NC[C@@H](F)C(C)(C)O` [Example 84] as the compound, how does the IC50 (IRAK4) read?
**A.** 1.5 nM

**Q.** What about the EC50 [1] of the same compound?
**A.** 138 nM
